Experimental data from patent US20260274828A1, “BROAD SPECTRUM ANTIFUNGAL KETO-ALKYL-PYRIDINIUM COMPOUNDS” (priority 2023, published 2026).

System: red blood cells
Assay: Red blood cell lysis assay
Assay type: cell-based, sheep
Details: 2 h, normalized to max lysis by triton-x
Protocol: Hemolysis assays were performed with defibrinated sheep's blood (Lampire, Cat #7239001). Blood was washed three times with PBS then resuspended to about 50% hematocrit in PBS. A two-fold dilution series of the compounds in 200 μL PBS with equal DMSO concentration across the series, then red blood cells were added with a final concentration of 2% hematocrit. Cells were incubated at RT for 2 hours in a v-bottom microtiter plate, then plates were spun down and supernatant was transferred to a flat bottom microtiter plate for absorbance measurement at 570 nm. Compounds were tested in technical triplicate in at least two independent assays performed on different days.

Nc1cc[n+](CC(=O)c2ccc3c(c2)OC(c2ccccc2)(c2ccccc2)O3)cc1.[Cl-] [Compound A]
red blood cell lysis LD50: 26.9 µg/mL
